We go through one molecule from patent US11938121B2, “Treatment of infections and biofilm formation using a cellulose synthase inhibitor” (Purdue Research Foundation, priority 2020, dated 2024).

Molecules are shown by their SMILES.

In test [1] the test system is Arabidopsis Col-0. The test is described as follows: Etiolated hypocotyl growth assay. The class given is in vivo, Arabidopsis thaliana. The note with it: dark-grown Col-0, dosages examined. The protocol:
To test the inhibitory effects of different chemicals on plant growth, wild-type Arabidopsis Col-0 plants were used. The seeds of plants used for growth assays or live cell imaging were sequentially sterilized with 50% bleach and 75% ethanol. After washing with sterilized water, the seeds were sown on ½-strength Murashige and Skoog (MS) medium supplemented with 3 mg/L of various chemicals. The plants were grown under continuous light of 130 μmol m^−2 s^−1 intensity illuminated by a Philips F25T8/TL841 25-watt bulb at 22° C. To quantify the inhibitory effects of different ES20 active analogs on the root growth of Arabidopsis wildtype, EMS mutants, and transgenic plants expressing mutated AtCESA6 in prc1-1 background, sterilized Col-0, mutants, and transgenic plants seeds were sown on gridded Petri plates containing ½-strength MS medium supplemented with different concentrations of ES20 analogs. The plates were placed in vertical orientation in the growth chamber for root measurement. The plates were scanned using an Epson Perfection V550 scanner after 7 days of growth, and the root lengths of plants were quantified using ImageJ software. […] The Petri dishes were scanned, and hypocotyl length was measured using ImageJ. Transgenic plants expressing fluorescence-tagged PIN2, PIP2a, HDEL, VHA-a1, and GOT1p were as reported previously (Xu and Scheres, Plant Cell, 2005, 17, 525-536).

For test [2], the system named is Arabidopsis Col-0. The test is described as follows: Arabidopsis Col-0 root growth and root swelling assay. The conditions noted are these: same dosage as ES20. The class given is in vivo, Arabidopsis thaliana. The protocol:
During the primary screening, we sowed Col-0 seeds on solid growth medium supplemented with 0.1% DMSO or 3 mg/L of different compounds with molar concentrations ranging from 5-10 μM. After 7 days of growth, we imaged the seedlings and evaluated the inhibitory effect of each chemical. Because disrupting cellulose biosynthesis by treating plants with a cellulose biosynthesis inhibitor or introducing mutations in the cellulose biosynthesis pathway often leads to root growth inhibition, root swelling, as well as ectopic lignin accumulation (Arioli et al., Science 1998, 279, 717-720; Huang et al., 2020), we first evaluated the ability of the compounds to inhibit root growth and cause root swelling. […] We grew wildtype seedlings on growth medium supplemented with DMSO (0.1%) or different concentrations of ES20 analogs for 7 days and quantified the crystalline cellulose content in root cell wall. […]
To test the inhibitory effects of different chemicals on plant growth, wild-type Arabidopsis Col-0 plants were used. […] To quantify the inhibitory effects of different ES20 active analogs on the root growth of Arabidopsis wildtype, EMS mutants, and transgenic plants expressing mutated AtCESA6 in prc1-1 background, sterilized Col-0, mutants, and transgenic plants seeds were sown on gridded Petri plates containing ½-strength MS medium supplemented with different concentrations of ES20 analogs. […]

For test [3], the target named is T1, GFP-CESA6c^P595S: GFP-tagged central cytoplasmic domain of AtCESA6 (cellulose synthase, CESA6) carrying missense mutation P595S, with a His-SUMO tag (Arabidopsis thaliana, UniProt Q94JQ6, P595S).
T1 construct: We purified AtCESA6 central cytoplasmic domain carrying missense mutation P595S (CESA6c^P595S); His-SUMO; made in house; host or cells: E. coli
Briefly: Microscale thermophoresis (MST) binding to purified GFP-tagged CESA6c^P595S (missense mutant). An excerpt:
FIGS. 3A-3Q. […] FIG. 3A to FIG. 3G. […] FIG. 3A. Representative 5-day-old dark-grown Arabidopsis Col-0 seedlings grown on growth medium supplemented with different concentrations of ES20 or ES20-1. Scale bar: 1 cm. FIG. 3B. Quantification of hypocotyl length of 5-day-old dark-grown Arabidopsis Col-0 seedlings described in FIG. 3A. Data represent mean±SD (n=12 seedlings). FIG. 3C. Quantification of crystalline cellulose content in the hypocotyl cell walls of 7-day-old dark-grown Col-0 seedlings grown on growth medium supplemented with DMSO (0.1%), 1 μM ES20, or 1 μM ES20-1. Data represent mean±SD (n=3 biological replicates). FIG. 3D and FIG. 3E. […] FIG. 3D. Representative image of 6-day-old rice seedlings grown in sterile water supplemented with DMSO (0.1%), 20 μM ES20, or 20 μM ES20-1. Scale bar: 1 cm. FIG. 3E. Quantification of root length of rice seedlings as described in FIG. 3D. Data represent mean±SD (n=10 seedlings). FIG. 3F and FIG. 3G. […] FIG. 3F. […] Quantification of root length of maize seedlings as described in FIG. 3F. […] Quantitative analysis of the band intensity of YFP-AtCESA6 and SEC12 in ES20-1-treated samples divided by that of DMSO-treated samples in the DARTS assay described in FIG. 3H. […] Statistically significant differences in FIG. 3B were determined using one-way ANOVA followed by Tukey's multiple comparisons test. […]

For `Cc1ccccc1C(=O)NNC(=S)NC(=O)c1ccccc1` [ES20-1], the “hypocotyl growth inhibition compared with ES20” value in test [1] was “inhibited hypocotyl growth more strongly than ES20”. Further, in test [2], the “root growth inhibition compared with ES20” value was “more strongly inhibited root growth than ES20”. Moreover, in test [3], the Kd amounted to 9.5 ± 6.3 µM.
